In US10973772B2, “Targeted delivery of hydrophilic drugs” (Double Bond Pharmaceuticals AB, priority 2014, dated 2021):
Structures can show the parent of a compound that is named as a salt. Where two headings read alike, the source gives them in different places.

Tests used:
[1] = female, Wistar, rat, in vivo, 5 mg/kg, 2 h
[2] = Californian, rabbit, in vivo, 5 mg/kg, 0.5 h
[3] = In vivo distribution of doxorubicin in the liver of Wistar rats; details: female, rat, intravenous, 5 mg/kg
[4] = In vivo distribution of doxorubicin in Californian rabbit liver; details: intravenous, 5 mg/kg
[5] = Solubility in aqueous ethanol (UV method); type: physicochemical
Method: Solubility in aqueous ethanol was determined by centrifuging an adequate amount of freshly obtained colloid at 3000 rpm for 30-90 min, decanting the supernatant, adding 10 mL water and shaking the mixture, then repeating centrifugation, shaking and washing 3 times. The centrifugate from the final centrifugation was air dried for 72 h at room temperature followed by drying in vacuo for 24 h. A portion of the dried centrifugate (20 mg) was resuspended in 6 mL aqueous ethanol by stirring at room temperature for 24 h. The mixture was centrifuged at 3000 rpm for 10 min and the supernatant filtered through a 0.2 micrometer filter to remove aggregates of undissolved solid product. The solubility of the compound was determined by a UV method.

[6] = rabbit ear vein; 1.25 mg doxorubicin/kg vs 5.0 mg doxorubicin/kg doxorubicin hydrochloride
Method: FIG. 9 are graphs illustrating doxorubicin concentration in the liver and the heart upon intravenous injection of 5 mg/kg aqueous doxorubicin hydrochloride and of 1.25 mg/kg of the composition of the invention according to Example 1.
The doxorubicin composition of the invention according to Example 1 (R═C16 sulfonate) was administered to Californian rabbits by injection into the ear vein at a concentration of 1.25 mg doxorubicin/kg body weight. For comparison aqueous doxorubicin hydrochloride was administered in the same manner at a concentration of 5.0 mg doxorubicin/kg body weight.

| Compound | Increase of doxorubicin concentration in liver tissue [1] | Increase of doxorubicin concentration in liver tissue [2] | concentration at 2 h [3] | concentration at 0.5 h [4] | Solubility ([5]; colloid doxorubicin alkyl sulfates and alkane sulfonates in 30% ethanol (v/v)) | Solubility in 30% ethanol ([5]; doxorubicin salts, 30% ethanol (Table 5)) | Delivery of doxorubicin to the heart versus aqueous doxorubicin hydrochloride [6] | Efficiency of delivery of doxorubicin to the liver versus aqueous doxorubicin hydrochloride [6] |
| --- | --- | --- | --- | --- | --- | --- | --- | --- |
| COc1cccc2c1C(=O)c1c(O)c3c(c(O)c1C2=O)C[C@@](O)(C(=O)CO)C[C@@H]3O[C@H]1C[C@H](N)[C@H](O)[C@H](C)O1 [Cl^−, doxorubicin hydrochloride] | (1) times | (1) times | 11.5 ± 2.98 ng/g | 0.392 ± 0.128 ng/g |  |  |  |  |
| CCCCCCCCCCCCCCCCS(=O)(=O)O.COc1cccc2c1C(=O)c1c(O)c3c(c(O)c1C2=O)C[C@@](O)(C(=O)CO)C[C@@H]3O[C@H]1C[C@H](N)[C@H](O)[C@H](C)O1 [doxorubicin alkane sulfonate n=16] |  |  |  |  | 0.01194 mg/mL | 0.01194 mg/mL | no difference | about four |
